Assay results: patent US20240246815A1, “CHLORINE PEROXIDE RADICAL, AND PRODUCTION METHOD, COMPOSITION, QUANTIFICATION METHOD AND USE THEREOF” (SANKEI CO., LTD., priority 2021, published 2024)

Assay: Longevity of ESR signals in aqueous solution obtained by adding an acid to sodium chlorite
Format: physicochemical
Conditions: relatively low concentration of HCl (0.1 M sodium chlorite with 0.08 M HCl 1:1), stored in a dark location
Method: An aqueous solution obtained by adding an acid to sodium chlorite was prepared by mixing 0.1 M sodium chlorite with 2.5 M hydrochloric acid to achieve a desired concentration by using ion exchange water. The concentration of sodium chlorite was measured by standard iodometry.
An aqueous solution obtained by adding an acid to sodium chlorite was placed in a glass capillary tube with a length of 100 mm and inner diameter of 2 mm. The glass capillary was transferred to a capillary cell attached to an ESR cavity, and ESR measurement was taken by using an X band spectrometer (JEOL FA-100ESR) operated at 9.43 GHz at room temperature. The magnetic field was modulated at 100 KHz. […] The signal intensity was normalized with respect to an MnO marker, and the concentration of stable radical products was determined based on signal height by using an external standard TEMPOL. Radical species found in an aqueous solution obtained by adding an acid to sodium chlorite was quantified by using an integrated software for determining a spectral region mounted onto an ESR device.
Free radicals in an aqueous solution obtained by adding an acid to sodium chlorite were measured by using ESR measurement. […] The solution was measured 4 minutes later by ESR spectroscopy. […]

chlorine peroxide radical
ESR signals remained stable: one
